The target of assay [1] is AKT1 (Homo sapiens, UniProt P31749). Description: ADP-Glo kinase assay with active AKT1. The format is biochemical.
Assay [2] has as its target AKT2 (Homo sapiens, UniProt P31751). Description: ADP-Glo kinase assay with active AKT2. The format is biochemical.

Each structure is given as a SMILES string.

AKT1, sequence (P31749 whole entry): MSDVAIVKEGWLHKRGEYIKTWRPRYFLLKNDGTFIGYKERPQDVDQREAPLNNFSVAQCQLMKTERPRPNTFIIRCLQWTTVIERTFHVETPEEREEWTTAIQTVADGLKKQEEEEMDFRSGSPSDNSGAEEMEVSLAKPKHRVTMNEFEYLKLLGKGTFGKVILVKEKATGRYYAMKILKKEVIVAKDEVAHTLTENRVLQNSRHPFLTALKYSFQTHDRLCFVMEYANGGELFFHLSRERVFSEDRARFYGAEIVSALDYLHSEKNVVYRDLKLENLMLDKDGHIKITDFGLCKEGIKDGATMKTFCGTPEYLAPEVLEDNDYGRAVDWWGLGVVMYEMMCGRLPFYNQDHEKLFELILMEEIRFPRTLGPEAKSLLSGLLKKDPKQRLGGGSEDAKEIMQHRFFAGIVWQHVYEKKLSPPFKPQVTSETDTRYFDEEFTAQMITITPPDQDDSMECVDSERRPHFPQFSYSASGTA
AKT2, sequence (P31751 whole entry): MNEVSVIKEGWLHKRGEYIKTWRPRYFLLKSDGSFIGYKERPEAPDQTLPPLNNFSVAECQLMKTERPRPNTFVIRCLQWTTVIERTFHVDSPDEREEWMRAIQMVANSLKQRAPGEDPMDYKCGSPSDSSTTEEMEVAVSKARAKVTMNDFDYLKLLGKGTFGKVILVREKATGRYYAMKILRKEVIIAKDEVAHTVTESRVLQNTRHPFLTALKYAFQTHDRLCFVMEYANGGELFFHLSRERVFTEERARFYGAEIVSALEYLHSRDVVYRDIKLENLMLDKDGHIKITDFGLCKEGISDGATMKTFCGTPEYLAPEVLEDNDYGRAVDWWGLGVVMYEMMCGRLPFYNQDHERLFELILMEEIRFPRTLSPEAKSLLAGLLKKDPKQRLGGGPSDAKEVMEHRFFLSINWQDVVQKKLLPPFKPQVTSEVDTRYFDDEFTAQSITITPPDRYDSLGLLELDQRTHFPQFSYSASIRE

For the compound `C=C1C(=O)[C@]23[C@H](O)[C@H]1CC[C@H]2[C@@]12CO[C@]3(O)[C@@H](O)[C@@H]1C(C)(C)CC[C@@H]2O` [oridonin], the IC50 in assay [1] came to 8.4 ± 1.34 µM; in assay [2], 8.9 ± 0.92 µM.

The values are drawn from PMC6715294 (Molecular cancer therapeutics, 2018).
